Experimental data published in patent US9732063B2, “Kinase inhibitors” (RESPIVERT LIMITED, priority 2012, dated 2017).
Read-outs that look alike come from different tables or passages of the source.

Tests used:
GSK3α = GSK3α (Homo sapiens (Human), UniProt P49840); assay: GSK 3α enzyme inhibition (Z-LYTE FRET, Method 2); assay type: biochemical
Protocol: (§1) The enzyme inhibitory activities of compounds disclosed herein are determined by FRET using synthetic peptides labelled with both donor and acceptor fluorophores (Z-LYTE, Invitrogen Ltd., Paisley, UK).
The inhibitory activities of compounds of the invention against the GSK 3α enzyme isoform (Invitrogen), are evaluated by determining the level of activation/phosphorylation of the target peptide. The GSK3-α protein (500 ng/mL, 2.5 μL) is mixed with the test compound (2.5 μL at either 4 μg/mL, 0.4 μg/mL, 0.04 μg/mL, or 0.004 μg/mL) for 2 hr at RT. The FRET peptide (8 μM, 2.5 μL), which is a phosphorylation target for GSK3α, and ATP (40 μM, 2.5 μL) are then added to the enzyme/compound mixture and the resulting mixture incubated for 1 hr. Development reagent (protease, 5 μL) is added for 1 hr prior to detection in a fluorescence microplate reader (Varioskan® Flash, ThermoFisher Scientific).
(§2) In all cases, the site-specific protease cleaves non-phosphorylated peptide only and eliminates the FRET signal. Phosphorylation levels of each reaction are calculated using the ratio of coumarin emission (donor) over fluorescein emission (acceptor), for which high ratios indicate high phosphorylation and low ratios indicate low phosphorylation levels.

PBMCs [1] = assay: IL-2 and IFN gamma release in CD3/CD28 stimulated PBMC cells; assay type: cell-based; conditions: Homo sapiens
Protocol: PBMCs from healthy subjects are separated from whole blood using a density gradient (Lymphoprep, Axis-Shield Healthcare). Cells are added to a 96 well plate pre-coated with a mixture of CD3/CD38 monoclonal antibodies (0.3 μg/mL eBioscience and 3 μg/mL BD Pharmingen respectively). Compound at the desired concentration is then added to the wells and the plate left for 3 days under normal tissue culture conditions. Supernatants are harvested and IL-2 and IFN gamma release determined by Sandwich ELISA (Duo-set, R&D System). The IC50 is determined from the dose response curve.

PBMCs [2] = assay: LPS-induced TNFα/IL-8 release in PBMC cells; assay type: cell-based; conditions: Homo sapiens, read-out: IC50 Values for Inhibition of Cytokine Release PBMCs IL-8
Protocol: Peripheral blood mononuclear cells (PBMCs) from healthy subjects are separated from whole blood using a density gradient (Lymphoprep, Axis-Shield Healthcare). The PBMCs are seeded in 96 well plates and treated with compounds at the desired concentration for 2 hours before addition of 1 ng/mL LPS (Escherichia Coli O111:B4 from Sigma Aldrich) for 24 hours under normal tissue culture conditions (37° C., 5% CO2). The supernatant is harvested for determination of IL-8 and TN Fa concentrations by sandwich ELISA (Duo-set, R&D systems) and read on the fluorescence microplate reader (Varioskan® Flash, ThermoFisher Scientific).

c-Src = c-Src (Homo sapiens (Human), UniProt P12931); assay: c-Src enzyme inhibition (Z-LYTE FRET); assay type: biochemical
Protocol: as §1
(§3) The relevant enzyme (3000 ng/mL or 2000 ng/mL respectively, 2.5 μL) is incubated with the test compound (either 4 μg/mL, 0.4 μg/mL, 0.04 μg/mL, or 0.004 μg/mL, 2.5 μL each) for 2 hr at RT. The FRET peptides (8 μM, 2.5 μL), and appropriate ATP solutions (2.5 μL, 800 μM for c-Src, and 60 μM ATP for Syk) are then added to the enzymes/compound mixtures and incubated for 1 hr. Development reagent (protease, 5 μL) is added for 1 hr prior to detection in a fluorescence microplate reader (Varioskan® Flash, ThermoFisher Scientific).
as §2

p38 MAPKα = p38 MAPKα (Homo sapiens (Human), UniProt Q16539); assay: p38 MAPKα enzyme inhibition (Z-LYTE FRET, Method 2); assay type: biochemical
Protocol: as §1
The inhibitory activities of test compounds against the p38 MAPKα isoform (MAPK14: Invitrogen), are evaluated indirectly by determining the level of activation/phosphorylation of the down-stream molecule, MAPKAP-K2. The p38 MAPKα protein (80 ng/mL, 2.5 μL) is mixed with the test compound (2.5 μL of either 4 μg/mL, 0.4 μg/mL, 0.04 μg/mL or 0.004 μg/mL) for 2 hr at RT. […] The mixture is incubated for 1 hr at RT. Development reagent (protease, 5 μL) is added for 1 hr prior to detection in a fluorescence microplate reader (Varioskan® Flash, ThermoFisher Scientific).
as §2

Syk = Syk (Homo sapiens (Human), UniProt P43405); assay: Syk enzyme inhibition (Z-LYTE FRET); assay type: biochemical
Protocol: as §1, §3, §2

d-U937 cells = assay: LPS-induced TNFα/IL-8 release in d-U937 cells; assay type: cell-based; conditions: Homo sapiens
Protocol: Cells are pre-incubated with final concentrations of test compound for 2 hr and are then stimulated with 0.1 μg/mL of LPS (from E. coli: O111:B4, Sigma) for 4 hr. The supernatant is collected for determination of TNFα and IL-8 concentrations by sandwich ELISA (Duo-set, R&D systems). […] The relative 50% effective concentration (REC50) is determined from the resultant concentration-response curve. The inhibition of IL-8 production is calculated at each concentration of test compound by comparison with vehicle control.

[3] = read-out: IC50 Values for Inhibition of Cytokine Release PBMCs IL-2
[4] = dU937, read-out: IC50 Values for Inhibition of Cytokine Release dU937 cells TNFα
[5] = read-out: IC50 Values for Inhibition of Cytokine Release PBMCs IFNγ
[6] = dU937, read-out: IC50 Values for Inhibition of Cytokine Release dU937 cells IL-8

p38 MAPKα, sequence (Q16539 whole entry): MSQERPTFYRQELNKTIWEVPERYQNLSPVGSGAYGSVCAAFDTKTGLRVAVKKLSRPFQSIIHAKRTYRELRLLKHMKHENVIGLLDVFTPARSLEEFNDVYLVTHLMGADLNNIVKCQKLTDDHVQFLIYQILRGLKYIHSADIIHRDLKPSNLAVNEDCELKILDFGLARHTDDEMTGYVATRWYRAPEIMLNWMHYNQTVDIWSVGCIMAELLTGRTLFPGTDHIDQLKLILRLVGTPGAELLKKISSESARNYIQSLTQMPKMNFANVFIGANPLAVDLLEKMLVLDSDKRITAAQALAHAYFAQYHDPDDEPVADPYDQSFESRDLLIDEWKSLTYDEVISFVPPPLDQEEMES
GSK3α, sequence (P49840 whole entry): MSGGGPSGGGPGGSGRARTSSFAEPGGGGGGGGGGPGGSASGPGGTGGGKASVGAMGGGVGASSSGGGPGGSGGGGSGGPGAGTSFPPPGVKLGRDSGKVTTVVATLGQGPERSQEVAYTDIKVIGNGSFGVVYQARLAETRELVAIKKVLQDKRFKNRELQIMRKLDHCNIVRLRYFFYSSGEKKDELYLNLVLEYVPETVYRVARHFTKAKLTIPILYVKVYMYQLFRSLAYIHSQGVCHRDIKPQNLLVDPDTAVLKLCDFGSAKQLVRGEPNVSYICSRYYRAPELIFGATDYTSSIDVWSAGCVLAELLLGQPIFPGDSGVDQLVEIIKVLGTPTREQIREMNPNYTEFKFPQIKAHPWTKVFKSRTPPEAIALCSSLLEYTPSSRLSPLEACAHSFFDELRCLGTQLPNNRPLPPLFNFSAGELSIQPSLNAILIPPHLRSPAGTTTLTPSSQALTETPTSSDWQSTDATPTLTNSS
c-Src, sequence (P12931 whole entry, looked up): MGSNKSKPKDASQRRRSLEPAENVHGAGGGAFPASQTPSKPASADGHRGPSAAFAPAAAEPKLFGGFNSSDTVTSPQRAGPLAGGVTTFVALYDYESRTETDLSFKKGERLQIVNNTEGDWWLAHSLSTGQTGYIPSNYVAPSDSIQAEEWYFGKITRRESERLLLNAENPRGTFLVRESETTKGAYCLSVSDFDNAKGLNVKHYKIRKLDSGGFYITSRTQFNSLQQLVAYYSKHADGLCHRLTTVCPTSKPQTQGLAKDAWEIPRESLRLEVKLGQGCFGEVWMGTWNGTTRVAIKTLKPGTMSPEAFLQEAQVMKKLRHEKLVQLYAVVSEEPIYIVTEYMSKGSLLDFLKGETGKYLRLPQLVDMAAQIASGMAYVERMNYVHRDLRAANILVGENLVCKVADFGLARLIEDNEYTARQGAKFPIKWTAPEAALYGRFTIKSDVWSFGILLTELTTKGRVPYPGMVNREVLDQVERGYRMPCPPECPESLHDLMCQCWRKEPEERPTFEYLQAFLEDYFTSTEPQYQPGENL

Row | SMILES | IC50 (GSK3α) [nM] | IC50 (PBMCs [1]; [3]) [nM] | IC50 (PBMCs [2]) [nM] | IC50 (c-Src) [nM] | IC50 (p38 MAPKα) [nM] | IC50 (Syk) [nM] | IC50 (d-U937 cells; [4]) [nM] | IC50 (PBMCs [1]; [5]) [nM] | IC50 (d-U937 cells; [6]) [nM]
1 | COc1cc(Nc2nccc(Oc3ccc(NC(=O)Nc4cc(C(C)C)nn4-c4ccc(C)cc4)c4ccccc34)n2)cc(OCCN2CCOCC2)c1 [Example 17, 1-(3-Isopropyl-1-(P-tolyl)-1H-pyrazol-5-yl)-3-(4-((2-((3-methoxy-5-(2-morpholinoethoxy)-phenyl)amino)pyrimidin-4-yl)oxy)naphthalen-1-yl)urea] | 2670 | 20.3 | 1.1 | > 383 | > 280 | > 537 | – | – | –
2 | COc1cc(Nc2nccc(Oc3ccc(NC(=O)Nc4cc(C(C)C)nn4-c4ccc(C)cc4)c4ccccc34)n2)cc(OCCOCCOCCO)c1 [Example 20, 1-(4-((2-((3-(2-(2-(2-Hydroxyethoxy)ethoxy)ethoxy)-5-methoxyphenyl)amino)pyrimidin-4-yl)oxy)naphthalen-1-yl)-3-(3-isopropyl-1-(P-tolyl)-1H-pyrazol-5-yl)urea] | – | 80.8 | 1.5 | 8 | 26 | 8 | 1.6 | – | –
3 | COc1cc(Nc2nccc(Oc3ccc(NC(=O)Nc4cc(C(C)C)nn4-c4ccc(C)cc4)c(Cl)c3Cl)n2)cc(OCCN2CCOCC2)c1 [Example 21, 1-(2,3-Dichloro-4-((2-((3-methoxy-5-(2-morpholinoethoxyl)phenyl)amino)pyrimidin-4-yl)-oxy)phenyl)-3-(3-isopropyl-1-(p-tolyl)-1H-pyrazol-5-yl)urea] | – | 10.7 | 1.6 | 61 | 342 | 72 | 1.1 | 1.9 | 1.6
4 | COc1cc(Nc2nccc(Oc3ccc(NC(=O)Nc4cc(C(C)C)nn4-c4ccc(C)cc4)c(Cl)c3Cl)n2)cc(S(=O)(=O)C2CC2)c1 [Example 23, 1-(2,3-Dichloro-4-((2-((3-(cyclopropylsulfonyl)-5-methoxyphenyl)amino)pyrimidin-4-yl)-oxy)phenyl)-3-(3-isopropyl-1-(p-tolyl)-1H-pyrazol-5-yl)urea] | 1400 | – | 2.6 | 53 | – | 289 | – | – | –
5 | COCCOCCOCCOCCOc1cc(Nc2nccc(Oc3ccc(NC(=O)Nc4cc(C(C)C)nn4-c4ccc(C)cc4)c4ccccc34)n2)cc(OC)c1 [Example 29, 1-(4-((2-((3-(2,5,8,11-Tetraoxatridecan-13-yloxy)-5-methoxyphenyl)amino)pyrimidin-4-yl)oxy)naphthalen-1-yl)-3-(3-isopropyl-1-(p-tolyl)-1H-pyrazol-5-yl)urea] | > 10000 | 74.1 | 2.5 | 6 | 30 | 16 | – | 6.6 | –
6 | COCCOCCOCCOCCOCCOc1cc(Nc2nccc(Oc3ccc(NC(=O)Nc4cc(C(C)C)nn4-c4ccc(C)cc4)c4ccccc34)n2)cc(OC)c1 [Example 30, 1-(4-((2-((3-(2,5,8,11,14-Pentaoxahexadecan-16-yloxy)-5-methoxyphenyl)amino)-pyrimidin-4-yl)oxy)naphthalen-1-yl)-3-(3-isopropyl-1-(p-tolyl)-1H-pyrazol-5-yl)urea] | 7230 | 27.3 | 2.1 | 4 | 32 | 12 | – | 15.2 | –
7 | COCCOCCOCCOCCOCCOCCOCCOc1cc(Nc2nccc(Oc3ccc(NC(=O)Nc4cc(C(C)C)nn4-c4ccc(C)cc4)c4ccccc34)n2)cc(OC)c1 [Example 32, 1-(4-((2-((3-(2,5,8,11,14,17,20-Heptaoxadocosan-22-yloxy)-5-methoxyphenyl)amino)-pyrimidin-4-yl)oxy)naphthalen-1-yl)-3-(3-isopropyl-1-(p-tolyl)-1H-pyrazol-5-yl)urea] | 4690 | – | 1.4 | 3 | 11 | 7 | – | – | –
8 | COc1cc(Nc2nccc(Oc3ccc(NC(=O)Nc4cc(C(C)(C)C)nn4-c4ccc(C)cc4)c4ccccc34)n2)cc(SCCCN2CCOCC2)c1 [Example 42, 1-(3-(tert-Butyl)-1-(p-tolyl)-1H-pyrazol-5-yl)-3-(4-((2-((3-methoxy-5-((3-morpholinopropyl)-thio)phenyl)amino)pyrimidin-4-yl)oxy)naphthalen-1-yl)urea] | 1930 | 58.5 | 3.6 | 28 | 291 | 51 | – | 1 | –
9 | COc1cc(Nc2nccc(Oc3ccc(NC(=O)Nc4cc(C(C)(C)C)nn4-c4ccc(C)cc4)c4ccccc34)n2)cc(OCCN2CCOCC2)c1 [Example 45, 1-(3-(tert-Butyl)-1-(P-tolyl)-1H-pyrazol-5-yl)-3-(4-((2-((3-methoxy-5-(2-morpholinoethoxy)-phenyl)amino)pyrimidin-4-yl)oxy)naphthalen-1-yl)urea] | 1490 | 73.8 | 3.2 | 12 | 144 | 15 | – | 2.2 | –
10 | COc1cc(Nc2nccc(Oc3ccc(NC(=O)Nc4cc(C(C)(C)C)nn4-c4ccc(C)cc4)c4ccccc34)n2)cc(OCCOCCOCCN(C)C)c1 [Example 57, 1-(3-(tert-Butyl)-1-(p-tolyl)-1H-pyrazol-5-yl)-3-(4-((2-((3-(2-(2-(2-(dimethylamino)ethoxy)ethoxy)ethoxy)-5-methoxyphenyl)amino)pyrimidin-4-yl)oxy)naphthalen-1-yl)urea] | 1940 | 14.6 | 0.9 | 7 | – | 8 | – | 1.4 | –
11 | COCCOCCOc1cc(Nc2nccc(Oc3ccc(NC(=O)Nc4cc(C(C)(C)C)nn4-c4ccc(C)cc4)c4ccccc34)n2)cc(OC)c1 [Example 60, 1-(3-(tert-Butyl)-1-(p-tolyl)-1H-pyrazol-5-yl)-3-(4-((2-((3-methoxy-5-(2-(2-methoxyethoxy)ethoxy)phenyl)amino)pyrimidin-4-yl)oxy)naphthalen-1-yl)urea] | > 10000 | 72.6 | 2.2 | 17 | – | 30 | – | 3 | –
12 | COc1ccc(-n2nc(C(C)(C)C)cc2NC(=O)Nc2ccc(Oc3ccnc(Nc4cc(OC)cc(S(=O)(=O)C5CC5)c4)n3)c3ccccc23)cc1 [Example 70, 1-(3-(tert-Butyl)-1-(4-methoxyphenyl)-1H-pyrazol-5-yl)-3-(4-((2-((3-(cyclopropylsulfonyl)-5-methoxyphenyl)amino)pyrimidin-4-yl)oxy)naphthalen-1-yl)urea] | 3350 | 73.5 | 0.9 | – | 300 | 62 | 1.1 | 1.4 | 1.9
